Values of other authors in US20230181442A1, “METHOD FOR DYEING KERATIN MATERIAL, COMPRISING THE USE OF AN ORGANOSILICON COMPOUND, HYALURONIC ACID (SALT), A DYEING COMPOUND AND A POST-TREATMENT AGENT” (Henkel AG & Co. KGaA, priority 2020, published 2023).

Conditions: for solubility in water: 25° C.

| solubility in water | solubility in water (in words) (water at 25° C.) | SMILES |
| --- | --- | --- |
|  | highly soluble | O=C(O)C1=NN(c2ccc(S(=O)(=O)O)cc2)C(=O)C1N=Nc1ccc(S(=O)(=O)O)cc1 (stereo not shown) [Acid Yellow 23, 4,5-dihydro-5-oxo-1-(4-sulfophenyl)-4-((4-sulfophenyl)azo)-1H-pyrazole-3-carboxylic acid] |
| above 40 g/L |  | O=[N+]([O-])c1cc([N+](=O)[O-])c2ccc(S(=O)(=O)O)cc2c1O [Acid Yellow 9, 8-hydroxy-5,7-dinitro-2-naphthalenesulfonic acid] |
| more than 20 wt. % |  | CCN(Cc1cccc(S(=O)(=O)O)c1)c1ccc(C(=C2C=CC(=[N+](CC)Cc3cccc(S(=O)(=O)O)c3)C=C2)c2ccccc2S(=O)(=O)[O-])cc1 [Acid Blue 9] |

| SMILES | solubility in water | solubility in water (in words) (water at 25° C.) |
| --- | --- | --- |
| O=S(=O)(O)c1ccc(N=Nc2c(O)ccc3ccccc23)cc1 [Acid Orange 7, 4-[(2-hydroxy-1-naphthyl)azo]benzene sulfonate] | more than 7 g/L |  |
